# Measurements from ChEMBL document CHEMBL1133994, “Design and synthesis of sialyl Lewis x mimics as E-selectin inhibitors” (Bioorg Med Chem Lett, 2001).
# Target: T1, E-selectin (Homo sapiens, UniProt P16581)
# T1 sequence (P16581 whole entry): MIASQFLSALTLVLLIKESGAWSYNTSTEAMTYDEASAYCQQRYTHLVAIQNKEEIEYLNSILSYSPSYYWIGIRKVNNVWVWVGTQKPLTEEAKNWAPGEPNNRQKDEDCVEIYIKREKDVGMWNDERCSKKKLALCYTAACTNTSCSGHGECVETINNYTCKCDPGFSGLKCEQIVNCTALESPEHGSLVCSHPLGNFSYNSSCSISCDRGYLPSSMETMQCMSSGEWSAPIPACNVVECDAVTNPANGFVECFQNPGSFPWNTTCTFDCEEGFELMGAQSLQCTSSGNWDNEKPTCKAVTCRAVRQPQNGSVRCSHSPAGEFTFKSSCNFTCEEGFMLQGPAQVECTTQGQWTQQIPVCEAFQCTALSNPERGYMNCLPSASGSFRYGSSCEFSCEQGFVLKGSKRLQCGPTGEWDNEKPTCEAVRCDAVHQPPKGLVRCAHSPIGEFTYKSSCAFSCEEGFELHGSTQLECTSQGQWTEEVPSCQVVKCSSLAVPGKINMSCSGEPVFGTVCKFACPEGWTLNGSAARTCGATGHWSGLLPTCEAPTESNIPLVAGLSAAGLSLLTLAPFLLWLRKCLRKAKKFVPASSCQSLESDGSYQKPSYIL
# Assay: In vitro inhibitory activity against Selectin E binding to human recombinant AGP (alpha-1 acid glycoprotein); call rule not given here
row,SMILES,IC50 [mM]
1,CC1CCCC(N(C)CC2OC(CC(=O)N[C@@H](CCC(=O)O)C(=O)O)C(O)C(O)C2O)C1 (some centres not stated),8
2,NC(=O)[C@H](Cc1ccccc1)NCC1OC(CC(=O)N[C@@H](CCC(=O)O)C(=O)O)C(O)C(O)C1O (some centres not stated),6.7
3,O=C(O)CCc1ccc(NC(=O)CC2OC(CO)C(O)C(O)C2O)cc1 (configuration not stated),10
4,O=C(O)CCCc1ccc(NC(=O)CC2OC(CO)C(O)C(O)C2O)cc1 (configuration not stated),> 10
5,O=C(O)CC[C@H](NC(=O)CC1OC(CNc2cc(C(=O)O)cc(C(=O)O)c2)C(O)C(O)C1O)C(=O)O (some centres not stated),6
6,O=C(O)CC[C@H](NC(=O)CC1OC(CN2CCC(O)(Cc3ccccc3)CC2)C(O)C(O)C1O)C(=O)O (some centres not stated),1.6

# Second part, the compound after the results:
row,IC50 [mM],SMILES
1,3,O=C(O)CC[C@H](NC(=O)CC1OC(CO)C(O)C(O)C1O)C(=O)O (some centres not stated)
2,6,O=C(O)C[C@@H](NC(=O)CC1OC(CO)C(O)C(O)C1O)C(=O)O (some centres not stated)
3,> 10,NC(=O)CC[C@@H](NC(=O)CC1OC(CO)C(O)C(O)C1O)C(=O)O (some centres not stated)
4,7,O=C(O)CC[C@@H](NC(=O)CC1OC(CO)C(O)C(O)C1O)C(=O)O (some centres not stated)
5,7,NCCCC[C@@H](NC(=O)CC1OC(CO)C(O)C(O)C1O)C(=O)O (some centres not stated)

# Target: T1, E-selectin
# Assay: In vitro inhibitory activity against binding of Selectin E to human recombinant AGP (alpha-1 acid glycoprotein) at a concentration of 10 mM; NA- Not active
row,IC50,SMILES
1,Not Active,NC(=O)[C@H]1CCCN1CC1OC(CC(=O)N[C@@H](CCC(=O)O)C(=O)O)C(O)C(O)C1O (some centres not stated)
2,Not Active,O=C(O)c1cc(NCCC2OC(CO)C(O)C(O)C2O)cc(C(=O)O)c1 (configuration not stated)
3,Not Active,O=C(O)C(NCCC1OC(CO)C(O)C(O)C1O)c1cc2ccccc2[nH]1 (configuration not stated)
4,Not Active,Cc1cccc(N2CCN(CC3OC(CC(=O)N[C@@H](CCC(=O)O)C(=O)O)C(O)C(O)C3O)CC2)c1C (some centres not stated)
5,Not Active,NC(=O)CC1OC(CO)C(O)C(O)C1O (configuration not stated)

row,SMILES,IC50
1,C[C@@H](Cc1ccccc1)N(C)CC1OC(CC(=O)N[C@@H](CCC(=O)O)C(=O)O)C(O)C(O)C1O (some centres not stated),Not Active
